This is an account of results in patent US9700047B2, “Macrocyclic picolinamides as fungicides” (Dow AgroSciences LLC, priority 2014, dated 2017).

Like-named read-outs stand apart in the source and are kept apart here.

For experiment [1], the system named is Rhyncosporium secalis. Kind of experiment: Barley scald (RHYNSE) disease control on barley seedlings. The conditions noted are these: 100 ppm; 1 Day Protectant. The class given is in vivo. The protocol:
All fungicides were evaluated using the aforementioned method for their activity vs. all target diseases, unless stated otherwise. Wheat leaf blotch and brown rust activity were also evaluated using track spray applications, in which case the fungicides were formulated as EC formulations, containing 0.1% Trycol 5941 in the spray solutions. Barley seedlings (variety Harrington) were propagated in soil-less Metro mix, with each pot having 8 to 12 plants, and used in the test when first leaf was fully emerged. Test plants were inoculated by an aqueous spore suspension of Rhyncosporium secalis 24 hr after fungicide treatments. After inoculation the plants were kept in a dew room at 20° C. with 100% relative humidity for 48 hr. The plants were then transferred to a greenhouse set at 20° C. for disease to develop. Fungicide formulation, application and disease assessment on the sprayed leaves followed the procedures as described in the Example A.

The subject of experiment [2] is Puccinia triticina; Synonym: Puccinia recondita f sp. tritici. Description: Wheat brown rust (PUCCRT) disease control on wheat seedlings. The format is in vivo. Conditions: for pest or weed control at 121.5 g/ha: Low Volume activity at 121.5 g/H; for pest or weed control at 100 ppm: High Volume activity at 100 ppm. The protocol:
All fungicides were evaluated using the aforementioned method for their activity vs. all target diseases, unless stated otherwise. Wheat leaf blotch and brown rust activity were also evaluated using track spray applications, in which case the fungicides were formulated as EC formulations, containing 0.1% Trycol 5941 in the spray solutions. Wheat plants (variety Yuma) were grown from seed in a greenhouse in 50% mineral soil/50% soil-less Metro mix until the first leaf was fully emerged, with 7-10 seedlings per pot. These plants were inoculated with an aqueous spore suspension of Puccinia triticina either prior to or after fungicide treatments. […] The plants were then transferred to a greenhouse set at 24° C. for disease to develop. Fungicide formulation, application and disease assessment followed the procedures as described in the Example A.

Setting [3] is: 24 h, 1 Day Protectant, read-out: PUCCRT 1DP % Control rating.
[4] abbreviates: 72 h, 3 Day Curative, read-out: PUCCRT 3DC % Control rating.

In the case of `CCCC[C@@H]1[C@@H](Cc2ccc(C(F)(F)F)cc2)CCC[C@H](NC(=O)c2nccc(OC)c2OCOC(C)=O)C(=O)O[C@H]1C` [Compound 3], in experiment [1], the “RHYNSE 1DP Disease Control rating” value is on record as “B (≦70)”. In addition, the pest or weed control at 121.5 g/ha in experiment [2] (setting [3]) was greater than 70%; in experiment [2] (setting [4]), less than 70%.
With `COc1ccnc(C(=O)N[C@H]2CCC[C@H](CCC(C)C)[C@@H](Cc3ccccc3)[C@H](C)OC2=O)c1O` [Compound 73], the pest or weed control at 100 ppm in experiment [2] (setting [3]) was greater than 70%; in experiment [2] (setting [4]), less than 70%.
In the same order, the values of `COc1ccnc(C(=O)N[C@H]2CCC[C@H](Cc3ccccc3)[C@@H](Cc3ccccc3)[C@H](C)OC2=O)c1O` [Compound 74] are greater than 70% and greater than 70%.
For `COc1ccnc(C(=O)N[C@H]2CCC[C@H](Cc3ccccc3)[C@@H](C3CCCC3)[C@H](C)OC2=O)c1O` [Compound 75], the pest or weed control at 100 ppm in experiment [2] (setting [3]) was greater than 70%; in experiment [2] (setting [4]), less than 70%.
As to `COc1ccnc(C(=O)N[C@H]2CCC[C@H](Cc3ccc(Cl)cc3)[C@@H](CC(C)C)[C@H](C)OC2=O)c1O` [Compound 76], the values for the pest or weed control at 100 ppm in experiment [2] (setting [3]) and in experiment [2] (setting [4]) were greater than 70% and less than 70%, respectively.
With `COc1ccnc(C(=O)N[C@H]2CCC[C@H](Cc3ccccc3)[C@@H](CCc3ccccc3)[C@H](C)OC2=O)c1O` [Compound 78], the results for the pest or weed control at 100 ppm in experiment [2] (setting [3]) and in experiment [2] (setting [4]) were greater than 70% and less than 70%, respectively.
The like results for `COc1ccnc(C(=O)N[C@H]2CCC[C@H](Cc3ccc(Cl)cc3)[C@@H](Cc3ccccc3)[C@H](C)OC2=O)c1O` [Compound 79] were, in that order, greater than 70% and less than 70%.
On to `COc1ccnc(C(=O)N[C@H]2CCC[C@H](Cc3ccc(C(F)(F)F)cc3)[C@@H](CC(C)C)[C@H](C)OC2=O)c1O` [Compound 80], for which the pest or weed control at 100 ppm in experiment [2] (setting [3]) is greater than 70%; in experiment [2] (setting [4]) it was less than 70%.
As for `COc1ccnc(C(=O)N[C@H]2CCC[C@H](Cc3ccc(C(F)(F)F)cc3)[C@@H](Cc3ccccc3)[C@H](C)OC2=O)c1O` [Compound 81], the results for the pest or weed control at 100 ppm in experiment [2] (setting [3]) and in experiment [2] (setting [4]) were greater than 70% and less than 70%, respectively.
For the compound `CCC[C@H]1CCC[C@H](NC(=O)c2nccc(OC)c2O)C(=O)O[C@@H](C)[C@@H]1Cc1ccccc1` [Compound 82], the pest or weed control at 100 ppm in experiment [2] (setting [3]) and in experiment [2] (setting [4]) was greater than 70% each time.
In the case of `COc1ccnc(C(=O)N[C@H]2CCC[C@H](CCC(C)C)[C@@H](CCc3ccccc3)[C@H](C)OC2=O)c1O` [Compound 83], the pest or weed control at 100 ppm in experiment [2] (setting [3]) was greater than 70%; in experiment [2] (setting [4]), less than 70%.
Turning to `COc1ccnc(C(=O)N[C@H]2CCC[C@H](Cc3ccc(Cl)cc3)[C@@H](C3CCCC3)[C@H](C)OC2=O)c1O` [Compound 84], the pest or weed control at 100 ppm is greater than 70% in experiment [2] (setting [3]) and less than 70% in experiment [2] (setting [4]).
On to `COc1ccnc(C(=O)N[C@H]2CCC[C@H](CCCc3ccccc3)[C@@H](CCc3ccccc3)[C@H](C)OC2=O)c1O` [Compound 85], for which the pest or weed control at 100 ppm in experiment [2] (setting [3]) was greater than 70%; in experiment [2] (setting [4]), less than 70%.
The like results for `COc1ccnc(C(=O)N[C@H]2CCC[C@H](Cc3ccc(C(F)(F)F)cc3)[C@@H](Cc3ccc(F)cc3)[C@H](C)OC2=O)c1O` [Compound 86] were, in that order, greater than 70% and less than 70%.
In the same order, the values of `COc1ccnc(C(=O)N[C@H]2CCC[C@H](CCC(C)C)[C@@H](C3CCCC3)[C@H](C)OC2=O)c1O` [Compound 87] are greater than 70% and less than 70%.
As for `COc1ccnc(C(=O)N[C@H]2CCC[C@H](Cc3ccccc3)[C@@H](CCC(C)C)[C@H](C)OC2=O)c1O` [Compound 88], the pest or weed control at 100 ppm in experiment [2] (setting [3]) is greater than 70%; in experiment [2] (setting [4]) it was less than 70%.
In the same order, the values of `COc1ccnc(C(=O)N[C@H]2CCC[C@H](Cc3ccccc3)[C@@H](c3ccccc3)[C@H](C)OC2=O)c1O` [Compound 90] are greater than 70% and greater than 70%.
Turning to `CCC[C@H]1CCC[C@H](NC(=O)c2nccc(OC)c2O)C(=O)O[C@@H](C)[C@@H]1c1ccccc1` [Compound 91], the pest or weed control at 100 ppm in experiment [2] (setting [3]) is greater than 70%; in experiment [2] (setting [4]) it was less than 70%.
The like results for `COc1ccnc(C(=O)N[C@H]2CCC[C@H](CCCc3ccccc3)[C@@H](CC(C)C)[C@H](C)OC2=O)c1O` [Compound 92] were, in that order, greater than 70% and less than 70%.
The like results for `COc1ccnc(C(=O)N[C@H]2CCC[C@H](CCCc3ccccc3)[C@@H](Cc3ccc(OC(F)(F)F)cc3)[C@H](C)OC2=O)c1O` [Compound 93] were, in that order, less than 70% and less than 70%.
For the compound `COc1ccnc(C(=O)N[C@H]2CCC[C@H](CC3CC3)[C@@H](Cc3ccccc3)[C@H](C)OC2=O)c1O` [Compound 94], the pest or weed control at 121.5 g/ha in experiment [2] (setting [3]) is greater than 70%; in experiment [2] (setting [4]), less than 70%.
Turning to `COc1ccnc(C(=O)N[C@H]2CCC[C@H](Cc3ccccc3)[C@@H](Cc3ccc(F)cc3)[C@H](C)OC2=O)c1O` [Compound 95], the results for the pest or weed control at 121.5 g/ha in experiment [2] (setting [3]) and in experiment [2] (setting [4]) were greater than 70% and less than 70%, respectively.
As for `COc1ccnc(C(=O)N[C@H]2CCC[C@H](Cc3ccc(C(F)(F)F)cc3)[C@@H](Cc3ccc(OC(F)(F)F)cc3)[C@H](C)OC2=O)c1O` [Compound 96], the pest or weed control at 100 ppm in experiment [2] (setting [3]) and in experiment [2] (setting [4]) was less than 70% in each case.
As to `COc1ccnc(C(=O)N[C@H]2CCC[C@H](Cc3ccccc3)[C@@H](Cc3ccc(OC(F)(F)F)cc3)[C@H](C)OC2=O)c1O` [Compound 97], the pest or weed control at 100 ppm in experiment [2] (setting [3]) is greater than 70%; in experiment [2] (setting [4]) it was less than 70%.
In the same order, the values of `COc1ccnc(C(=O)N[C@H]2CCC[C@H](CCCc3ccccc3)[C@@H](Cc3ccccc3)[C@H](C)OC2=O)c1O` [Compound 98] are greater than 70% and less than 70%.
